Data published in patent publication US9012502B2, “Cancer heat therapy-enhancing agent” (SBI Pharmaceuticals Co., Ltd., priority 2010, dated 2015).

Test system: HEK293 cells
Experiment: Assay for intracellular reactive oxygen species (DCF-DA, flow cytometry)
Format: cell-based, human
Settings: for fluorescence peak value derived from DCF-DA: 42° C. (5-ALA-free cells 244); for level of intracellular reactive oxygen species, increase compared with 5-ALA-free cells: 42° C. for 24 hours, in the dark; for level of intracellular reactive oxygen species (in words): 0.5-2.0 mM 5-ALA
Description: To investigate what kind of effect 5-aminolevulinic acids according to the present invention could exert on a level of intracellular reactive oxygen species during thermotherapy, human embryonic kidney-derived HEK293 cells and a DCF-DA fluorescent reagent (2′,7′-dichlorodihydrofluorescein diacetate; H2DCFDA) were used to perform an assay for measuring a level of intracellular reactive oxygen species. Note that this assay uses characteristics as follows. Cell-permeable H2DCFDA remains a non-fluorescent substance until it is oxidized in the cytoplasm of a viable cell. Once it enters the viable cell, its diacetate group is cleaved by an intracellular esterase. Then, the resulting molecule is further oxidized by reactive oxygen species to emit fluorescence. The higher the measured fluorescence level, the higher the level of intracellular reactive oxygen species. This assay was performed using the following procedure.
First, HEK293 cells were cultured at 37° C. for 24 hours in 10% fetal bovine serum (FBS)-containing Dulbecco's Modified Eagle (DME) medium. The cells were split into 8 groups. Next, the medium was replaced by an FBS-free DME medium. Then, 5-aminolevulinic acid (5-ALA) was added to each group at a final concentration of 0.5 mM, 1.0 mM, or 2.0 mM, and cultured at 37° C. for 2 hours. After that, 10% FBS was added, and the resulting HEK293 cells were incubated at 37 or 42° C. for 24 hours. In addition, 5-ALA-free HEK293 cells were likewise incubated at 37 or 42° C. for 24 hours. All the above culture processes were conducted in the dark, so that an ultraviolet light, visible light, infrared light, or radiation, etc., was never used for irradiation.
Furthermore, to each group of the HEK293 cells was added a DCF-DA fluorescent reagent (manufactured by Sigma-Aldrich Corporation) at a final concentration of 20 μM. The resulting mixture was incubated for 30 minutes. Then, fluorescence (FL1: green fluorescence) derived from the DCF-DA was measured for each group by flow cytometry (FACSCalibur, manufactured by Becton, Dickinson and Company). […] More specifically, when 0.5 mM of 5-ALA was added at an incubation temperature of 42° C., the level of intracellular reactive oxygen species was increased by 1.23 times (300/244) compared with that of the 5-ALA-free cells. When 1.0 mM of 5-ALA was added, the level of intracellular reactive oxygen species was increased by 1.34 times (326/244). When 2.0 mM of 5-ALA was added, the level of intracellular reactive oxygen species was increased by 1.42 times (346/244).

Structure (SMILES): NCC(=O)CCC(=O)O [5-ALA, 5-aminolevulinic acid]
- fluorescence peak value derived from DCF-DA (0.5 mM 5-ALA): 300
- level of intracellular reactive oxygen species, increase compared with 5-ALA-free cells (0.5 mM 5-ALA): 1.23 times
- fluorescence peak value derived from DCF-DA (1.0 mM 5-ALA): 326
- level of intracellular reactive oxygen species, increase compared with 5-ALA-free cells (1.0 mM 5-ALA): 1.34 times
- fluorescence peak value derived from DCF-DA (2.0 mM 5-ALA): 346
- level of intracellular reactive oxygen species, increase compared with 5-ALA-free cells (2.0 mM 5-ALA): 1.42 times
- level of intracellular reactive oxygen species (in words) (incubation temperature 37° C.): somewhat increased
- level of intracellular reactive oxygen species (in words) (incubation temperature 42° C.): markedly increased
